What was measured:
Format in all cases: cell-based, human
VEGFA = VEGFA expression by qRT-PCR in HEK293 cells transfected with SerRS constructs; details: HEK293 cells transfected with construct
Experimental: In FIG. 2A, wild type SerRS (SerRS^WT), its mutants with double substitutions of serine 101 and 241 with alanine or aspartic acid residues (SerRS^S101A/S241A and SerRS^S101D/S241D), or empty vector were transfected into HEK293 cells. The expression levels of SerRS proteins was measured by immunoblot (bottom) and VEGFA expression was determined by qRT-PCR (means±SEM from three independent experiments; ***P<0.0001). […] At 3 day post fertilization (dpf), embryos were harvested and Vegfa expression levels were measured by qRT-PCR (means±SEM, n=125-211; *P<0.01, **P<0.001) (B). The development of intersegmental vessel (ISV) at 3 dpf was examined (C) and the statistics of ISV abnormal branching rescued by SerRS^WT or mutant SerRS mRNA injections was analyzed (D; χ^2-test,* P>0.05 vs SerRS^WT, **P>0.1 vs SerRS-MO, ***P<1×10^−28 vs control-MO). […] In FIG. 2G, the binding of endogenous SerRS on VEGFA promoter during hypoxia course was monitored by ChIP (means±SEM from three independent experiments; *P<0.05, **P<0.005 vs normal). […]
HEK293 cells were transfected with wild type (WT) SerRS or SerRS mutants. […] At 24 hours post-transfection, cells were harvested and VEGFA expression levels were measured by qRT-PCR and relative VEGFA transcription were plotted after being normalized to 1-actin (means±: SEM).

VEGFA promoter = test: Chromatin immunoprecipitation (ChIP) on VEGFA promoter in HEK293 cells; details: ChIP and qPCR
Experimental: In FIG. 2A, wild type SerRS (SerRS^WT), its mutants with double substitutions of serine 101 and 241 with alanine or aspartic acid residues (SerRS^S101A/S241A and SerRS^S101D/S241D), or empty vector were transfected into HEK293 cells. The expression levels of SerRS proteins was measured by immunoblot (bottom) and VEGFA expression was determined by qRT-PCR (means±SEM from three independent experiments; ***P<0.0001). […] At 3 day post fertilization (dpf), embryos were harvested and Vegfa expression levels were measured by qRT-PCR (means±SEM, n=125-211; *P<0.01, **P<0.001) (B). The development of intersegmental vessel (ISV) at 3 dpf was examined (C) and the statistics of ISV abnormal branching rescued by SerRS^WT or mutant SerRS mRNA injections was analyzed (D; χ^2-test,* P>0.05 vs SerRS^WT, **P>0.1 vs SerRS-MO, ***P<1×10^−28 vs control-MO). […] In FIG. 2G, the binding of endogenous SerRS on VEGFA promoter during hypoxia course was monitored by ChIP (means±SEM from three independent experiments; *P<0.05, **P<0.005 vs normal).
Cells were fixed with formaldehyde (1% final concentration) for 10 min at room temperature. […] After 3 washes, ChIPed DNA was analyzed on the StepOnePlus Real-Time PCR system using SYBR Select Master Mix (Applied Biosystems). […]

ATM/ATR kinases = test: Phosphorylation of exogenously expressed Flag-tagged SerRS in hypoxic HEK293 cells (IP/IB with anti-P-SQ); details: hypoxia 12 hours

Row | Substance | repression of VEGFA transcription (VEGFA) | binding on VEGFA promoter (VEGFA promoter) | phosphorylation of exogenously expressed SerRS (ATM/ATR kinases)
1 | SerRS^S101D/S241D: SerRS with double substitutions of S101 and S241 with aspartic acid, mimics the phosphorylated SerRS | can no longer repress VEGFA transcription | decreased binding on VEGFA promoter | –
2 | SerRS^S101A/S241A: phosphorylation-deficient human SerRS double mutant, serine 101 and 241 to alanine, SEQ ID NO: 4 (mouse version in matrigel assay) | – | – | much weaker phosphorylation than wild type SerRS

From patent publication US20190167771A1, “CONTROL ANGIOGENESIS BY REGULATING PHOSPHORYLATION OF SERYL-tRNA SYNTHETASE (SerRS)” (The Scripps Research Institute, priority 2016, published 2019)
